Each structure is given as a SMILES string.

This assay addresses T1, human GPR139 receptor (Homo sapiens, UniProt Q6DWJ6).
T1 construct: expressed in transfected cells; host or cells: T-REx-CHO (Thermo Fisher Scientific), doxycycline-induced
T1 sequence (Q6DWJ6 1-353): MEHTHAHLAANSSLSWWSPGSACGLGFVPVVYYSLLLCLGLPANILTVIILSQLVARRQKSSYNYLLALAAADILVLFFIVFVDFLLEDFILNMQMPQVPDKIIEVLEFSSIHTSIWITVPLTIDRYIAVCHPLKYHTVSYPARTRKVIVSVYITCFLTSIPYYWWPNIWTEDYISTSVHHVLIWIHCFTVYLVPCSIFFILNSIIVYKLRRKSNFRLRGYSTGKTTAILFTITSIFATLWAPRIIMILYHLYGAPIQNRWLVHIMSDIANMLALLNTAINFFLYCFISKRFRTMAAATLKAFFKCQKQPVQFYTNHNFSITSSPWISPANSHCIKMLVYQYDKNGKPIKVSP
Nature of the assay: Measurement of GPR139 Activation Via Calcium Signaling (FLIPR, T-REx-CHO cells). It counts as cell-based. The note with it: T-REx-CHO cells stably expressing human GPR139, 11-point dose response, 10 μM maximum concentration, read-out: GPR139 Potency (pEC50) (converted). On the procedure:
Measurement of GPR139 Activation Via Calcium Signaling
This cell-based assay measures the ability of compounds to activate GPR139 in stably transfected T-REx™-CHO cells. T-REx™-CHO cells (Thermo Fisher Scientific®) are stably expressed with human GPR139 receptor, whose expression is controlled by a tetracycline-inducible element. The cells are cultured in medium containing F-12K nutrient mixture-Kaighn's modification, TripleLE™ Express (1×)-phenol red, Dulbecco's phosphate-buffered saline (1×), 10% tetracycline-free FBS, Blasticidin S HCl (10 μg/mL) and Hygromycin B (200 μg/mL). The cells are introduced into the wells of a 384-well black clear bottom plate (Costar®) at 10,000 cells/well. GPR139 receptor expression is induced with 2 μg/mL doxycycline (Sigma D9891). The plate is allowed to stand at room temperature for 10-30 minutes and then incubated at 37° C. and 5% CO2 for 17 hours prior to assay.
Culture media is removed from cells and 45 μL of 1× calcium dye (2.5 mM) is added to each well and incubated at 37° C. and 5% CO2 for 40 minutes. The plate is removed from the incubator and allowed to stand at RT for 20 minutes without a plate cover prior to measurement of calcium signaling. The calcium dye is prepared by adding 10 mL of assay buffer (Hank's Balanced Salt Solution (1×), 1 mM HEPES at pH 7.4) to one vial of calcium dye (FLIPR® Calcium 5 Assay Kit; Molecular Devices) at room temperature, vortexing the mixture until homogenous, and transferring the dye to a 250 mL flask using 10 mL of assay, buffer to rinse the vial. The dye is subsequently transferred to a conical flask, which is filled to the 200 mL mark with assay buffer, and 1 mL of […] probenecid solution (142.68 mg/mL in 1M NaOH aq) is added.
Example compounds suspended in DMSO are received from compound management in microtiter plates (0.25 μL/well) and are diluted in assay buffer (25 μL). Following incubation of the cell plate, the Example compounds are added to the cells (11-point dose response, 10 μM maximum concentration) using a FLIPR® Tetra system (Molecular Devices) and fluorescence is measured continuously for 1 minute. EC50 curves are generated with a four-parameter logistic equation using GraphPad Prism® 6, and activation of GPR139 for each example compound is reported as pEC50.
Consider `COc1ccc([C@H](C)NC(=O)Cn2nc(C)c3cnn(C(C)(C)C)c3c2=O)cc1` [Example 9, (S)-2-(1-(tert-butyl)-4-methyl-7-oxo-1,7-dihydro-6H-pyrazolo[3,4-d]pyridazin-6-yl)-N-(1-(4-methoxyphenyl)ethyl)acetamide], for which the EC50 was 95.5 nM.

With `Cc1ccc([C@H](C)NC(=O)Cn2ncc3c(c(C)nn3C(C)C)c2=O)cc1` [Example 46, (S)-2-(1-isopropyl-3-methyl-4-oxo-1,4-dihydro-5H-pyrazolo[3,4-d]pyridazin-5-yl)-N-(1-(p-tolyl)ethyl)acetamide], the EC50 was 77.6 nM.

As for `Cc1nn(CC(=O)N[C@@H](C)c2ccc(OC(F)(F)F)cc2)c(=O)c2cnn(C(C)C)c12` [Example 76, (S)-2-(1-isopropyl-7-methyl-4-oxo-1,4-dihydro-5H-pyrazolo[3,4-d]pyridazin-5-yl)-N-(1-(4-(trifluoromethoxy)phenyl)ethyl)acetamide], the EC50 was 1020 nM.

For the compound `Cc1ccc([C@H](C)NC(=O)Cn2nc(C)c3c(cnn3C(C)C)c2=O)cc1` [Example 77, (S)-2-(1-isopropyl-7-methyl-4-oxo-1,4-dihydro-5H-pyrazolo[3,4-d]pyridazin-5-yl)-N-(1-(p-tolyl)ethyl)acetamide], the EC50 was 91.2 nM.

As for `Cc1nn(CC(=O)N[C@@H](C)c2ccc(C(F)(F)F)cc2)c(=O)c2cnn(C3CC3)c12` [Example 78, (S)-2-(1-cyclopropyl-7-methyl-4-oxo-1,4-dihydro-5H-pyrazolo[3,4-d]pyridazin-5-yl)-N-(1-(4-(trifluoromethyl)phenyl)ethyl)acetamide], the EC50 was 79.4 nM.

In the case of `Cc1nn(CC(=O)N[C@@H](C)c2ccc(OC(F)(F)F)cc2)c(=O)c2cnn(C3CC3)c12` [Example 79, (S)-2-(1-cyclopropyl-7-methyl-4-oxo-1,4-dihydro-5/1-pyrazolo[3,4-d]pyridazin-5-yl)-N-(1-(4-(trifluoromethoxy)phenyl)ethyl)acetamide], the EC50 was 257 nM.

As to `Cc1ccc([C@H](C)NC(=O)Cn2nc(C)c3c(cnn3C(C)C)c2=O)c(F)c1` [Example 83, (S)—N-(1-(2-fluoro-4-methylphenyl)ethyl)-2-(1-isopropyl-7-methyl-4-oxo-1,4-dihydro-5H-pyrazolo[3,4-d]pyridazin-5-yl)acetamide], the EC50 is 93.3 nM.

As for `Cn1nc(C2CC2)c2c(=O)n(CC(=O)N3CCCC3c3ccc(Cl)cc3)ncc21` (stereo not drawn) [Example 84, 5-(2-(2-(4-chlorophenyl)pyrrolidin-1-yl)-2-oxoethyl)-3-cyclopropyl-1-methyl-1,5-dihydro-4H-pyrazolo[3,4-d]pyridazin-4-one], the EC50 was 407 nM.

For the compound `CC(C)n1ncc2c(=O)n(CC(=O)N[C@@H](C)c3ccc(C(F)(F)F)cc3)ncc21` [Example 86, (S)-2-(1-isopropyl-4-oxo-1,4-dihydro-5H-pyrazolo[3,4-d]pyridazin-5-yl)-N-(1-(4-(trifluoromethyl)phenyl)ethyl)acetamide], the EC50 was 83.2 nM.

`CC(C)n1ncc2c(=O)n(CC(=O)N[C@@H](C)c3ccc(OC(F)(F)F)cc3)ncc21` [Example 87, (S)-2-(1-isopropyl-4-oxo-1,4-dihydro-5H-pyrazolo[3,4-d]pyridazin-5-yl)-N-(1-(4-(trifluoromethoxy)phenyl)ethyl)acetamide]: the EC50 was 126 nM.

Turning to `Cc1ccc([C@H](C)NC(=O)Cn2ncc3c(cnn3C3CC3)c2=O)c(F)c1` [Example 90, (S)-2-(1-cyclopropyl-4-oxo-1,4-dihydro-5H-pyrazolo[3,4-d]pyridazin-5-yl)-N-(1-(2-fluoro-4-methylphenyl)ethyl)acetamide], the EC50 is 58.9 nM.

As for `Cc1ccc([C@H](C)NC(=O)Cn2ncc3c(cnn3C3CC3)c2=O)cc1` [Example 91, (S)-2-(1-cyclopropyl-4-oxo-1,4-dihydro-5H-pyrazolo[3,4-d]pyridazin-5-yl)-N-(1-(p-tolyl)ethyl)acetamide], the EC50 was 58.9 nM.

Turning to `Cc1ccc([C@H](C)NC(=O)Cn2ncc3c(c(C4CC4)nn3C(C)C)c2=O)c(F)c1` [Example 95, (S)-2-(3-cyclopropyl-1-isopropyl-4-oxo-1,4-dihydro-5H-pyrazolo[3,4-d]pyridazin-5-yl)-N-(1-(2-fluoro-4-methylphenyl)ethyl)acetamide], the EC50 is 117 nM.

In the case of `CC(C)n1nc(C2CC2)c2c(=O)n(CC(=O)N[C@@H](C)c3ccc(OC(F)(F)F)cc3)ncc21` [Example 96, (S)-2-(3-cyclopropyl-1-isopropyl-4-oxo-1,4-dihydro-5H-pyrazolo[3,4-d]pyridazin-5-yl)-N-(1-(4-(trifluoromethoxy)phenyl)ethyl)acetamide], the EC50 is 501 nM.

Turning to `Cc1ccc([C@H](C)NC(=O)Cn2ncc3c(c(C4CC4)nn3C(C)C)c2=O)cc1` [Example 97, (S)-2-(3-cyclopropyl-1-isopropyl-4-oxo-1,4-dihydro-5H-pyrazolo[3,4-d]pyridazin-5-yl)-N-(1-(p-tolyl)ethyl)acetamide], the EC50 is 49 nM.

For the compound `CC(C)n1nc(C2CC2)c2c(=O)n(CC(=O)N[C@@H](C)c3ccc(C(F)(F)F)cc3)ncc21` [Example 98, (S)-2-(3-cyclopropyl-1-isopropyl-4-oxo-1,4-dihydro-5H-pyrazolo[3,4-d]pyridazin-5-yl)-N-(1-(4-(trifluoromethyl)phenyl)ethyl)acetamide], the EC50 was 275 nM.

For `Cc1nn(C(C)C)c2c(C)nn(CC(=O)N[C@@H](C)c3ccc(OC(F)(F)F)cc3)c(=O)c12` [Example 100, (S)-2-(1-isopropyl-3,7-dimethyl-4-oxo-1,4-dihydro-5H-pyrazolo[3,4-d]pyridazin-5-yl)-N-(1-(4-(trifluoromethoxy)phenyl)ethyl)acetamide], the EC50 was 363 nM.

Consider `Cc1nn(C2CC2)c2cnn(CC(=O)N[C@@H](C)c3ccc(OC(F)(F)F)cc3)c(=O)c12` [Example 109, (S)-2-(1-cyclopropyl-3-methyl-4-oxo-1,4-dihydro-5H-pyrazolo[3,4-d]pyridazin-5-yl)-N-(1-(4-(trifluoromethoxy)phenyl)ethyl)acetamide], for which the EC50 is 282 nM.

Values taken from patent publication US12370192B2, “Azole-fused pyridazin-3(2H)-one derivatives” (TAKEDA PHARMACEUTICAL COMPANY LIMITED, priority 2019, dated 2025).
